Test results published in US20080026992A1, “Tyrosine Phosphorylation of Cdk Inhibitor Proteins of the Cip/Kip Family” (priority 2003, published 2008).

How the values were obtained:
Assay type in all cases: cell-based, human
K562 cells [1] = experiment: p27 stability in K562 cells (35S pulse-chase); conditions: 10 μM STI-571 for 16 hours
Experimental: (§1) HA-tagged p27 was transfected in 293T cells with a Bcr-Abl or Lyn encoding plasmids. […] Equal amounts of cell lysates were analyzed by Western blotting with monoclonal anti-phospho-Y88 antibodies and HRP-conjugated anti-p27 antibodies as indicated. b. […] Western blot analysis was performed with monoclonal anti-phospho-Y88 and HRP-conjugated anti-p27 antibodies. c. […] Cells (1×10^7/ml) were labeled with a ^35S labeled methionine/cysteine mix for 1 hour, and subsequently incubated in the absence of radioactivity for the indicated times. p27 was immunoprecipitated using anti-p27 antibodies. The labeled protein was visualized by autoradiography. The intensity of the bands was determined using a PhosphorImager and is expressed as a fraction of the time point 0. […] One representative experiment is shown.
(§2) Tyr-88 phosphorylation of p27 in a Bcr-Abl transformed tumor cell line was investigated next. K562 chronic myelogenous leukaemia cells express p210 Bcr-Abl kinase that is sensitive to inhibition with ST-571.

Lyn = experiment: p27 Tyr-88 phosphorylation in 293T cells transfected with Lyn (Western blot, anti-phospho-Y88); conditions: 10 μM STI-571
Experimental: as §1

K562 cells [2] = experiment: p27 protein level in K562 cells (Western blot); conditions: 2 or 10 μM STI-571 for 16 hours
Experimental: as §1, §2

K562 cells [3] = experiment: Cell cycle analysis by flow cytometry (BrdU/PI) of transfected K562 CML cells; conditions: moderate expression, 48 hours after transfection, GFP-sorted
Experimental: FIG. 9: p27 Y88F arrests K562 CML cells in G1 phase of the cell cycle. K562 CML cells were transfected with GFP and either 25 ug of p27 or 25 ug of p27-Y88F expression vector. 48 hours after transfection, cells with similar GFP expression level were isolated by flow cytometry cell sorting and the cell cycle distribution of these cells was determined using BrdU incorporation and PI staining. The distribution of these cells in the cell cycle phases is shown. Only p27-Y88F expression leads to an accumulation of G1 phase cells and reduced cells in S-phase.
The percentage of cells in the G1, S and G2/M phases of the cell cycle was determined by two dimensional flow cytometry. The DNA content was determined by staining DNA with the intercalating dye propidium iodide and quantifying the cell fractions with differing DNA content by flow cytometry. In addition, cells in S-phase were labelled with the nucleotide analog bromo 5-bromo-2′-deoxyuridine (BrdU), which is incorporated into newly synthesized DNA. […] Cells were analyzed on FACS ([…] Dickinson) flow cytometer using the CellQuest software. […]

Compound	p27 stability (K562 cells [1])	Tyr-88 phosphorylation of p27 by Lyn (Lyn)	p27 protein level (K562 cells [2])	S-phase entry (K562 cells [3])	effect on cell cycle / accumulation of cells in G1 phase (K562 cells [3])
Cc1ccc(NC(=O)c2ccc(CN3CCN(C)CC3)cc2)cc1Nc1nccc(-c2cccnc2)n1 [STI-571, 4-[(4-Methyl-1-piperazinyl)methyl]-N-[4-methyl-3-[[4-(3-pyridinyl)-2-pyrimidinyl]amino]-phenyl] benzamide methane sulfonate]	increase	no effect	dramatic increase		
p27-Y88F: mutant of p27 where tyrosine 88 is exchanged to phenylalanine				impaired	increasing cells accumulating in G1 phase
